Mutagenic call data for 7 compounds are collected here from PubChem BioAssay AID1259407 (Chemical Carcinogenesis Research Information System (CCRIS), 2018).

This data set concerns CCRIS mutagenicity, Ames/micronucleus/aberration tests. The data set can be described thus: CCRIS mutagenicity studies.
Where [1] appears, read: Test System: AMES SALMONELLA TYPHIMURIUM, Strain/Indicator: TA100, Metabolic Activation: NONE, Method: STANDARD PLATE.
Setting [2] is: Test System: AMES SALMONELLA TYPHIMURIUM, Strain/Indicator: TA1535, Metabolic Activation: NONE, Method: STANDARD PLATE.
[3] abbreviates: Test System: AMES SALMONELLA TYPHIMURIUM, Strain/Indicator: TA98, Metabolic Activation: NONE, Method: STANDARD PLATE.
[4] abbreviates: Test System: AMES SALMONELLA TYPHIMURIUM, Strain/Indicator: TA98, Metabolic Activation: RAT, LIVER, S-9, AROCLOR 1254, Method: STANDARD PLATE.
Setting [5] is: Test System: AMES SALMONELLA TYPHIMURIUM, Strain/Indicator: TA100, Metabolic Activation: RAT, LIVER, S-9, AROCLOR 1254, Method: STANDARD PLATE.
Where [6] appears, read: Test System: AMES SALMONELLA TYPHIMURIUM, Strain/Indicator: TA1535, Metabolic Activation: RAT, LIVER, S-9, AROCLOR 1254, Method: STANDARD PLATE.
Where [7] appears, read: Test System: AMES SALMONELLA TYPHIMURIUM, Strain/Indicator: TA1537, Metabolic Activation: NONE, Method: STANDARD PLATE.
Setting [8] is: Test System: AMES SALMONELLA TYPHIMURIUM, Strain/Indicator: TA1537, Metabolic Activation: RAT, LIVER, S-9, AROCLOR 1254, Method: STANDARD PLATE.

Calls of active or inactive are those of the source. How the calls were made is not given here.

Take `c1ccc2c(OCC3CO3)cccc2c1` (stereo unspecified): the mutagenic call under setting [1] is “active; positive”; the mutagenic call (Test System: AMES SALMONELLA TYPHIMURIUM, Strain/Indicator: TA104, Metabolic Activation: NONE, Method: STANDARD PLATE) is “active; positive”; the mutagenic call under setting [2] is “active; positive”; the mutagenic call (Test System: AMES SALMONELLA TYPHIMURIUM, Strain/Indicator: TA4001, Metabolic Activation: NONE, Method: STANDARD PLATE) is “active; positive”; the mutagenic call (Test System: AMES SALMONELLA TYPHIMURIUM, Strain/Indicator: TA4006, Metabolic Activation: NONE, Method: STANDARD PLATE) is “active; positive”.
As to `O=c1[nH]c2ccccc2o1`, the mutagenic call reads like this: (Test System: AMES SALMONELLA TYPHIMURIUM, Strain/Indicator: TA98, Metabolic Activation: HAMSTER, LIVER, S-9, AROCLOR 1254, Method: STANDARD PLATE) “inactive; negative”; under setting [3], “inactive; negative”; under setting [4], “inactive; negative”; (Test System: AMES SALMONELLA TYPHIMURIUM, Strain/Indicator: TA100, Metabolic Activation: HAMSTER, LIVER, S-9, AROCLOR 1254, Method: STANDARD PLATE) “inactive; negative”; under setting [1], “inactive; negative”; under setting [5], “inactive; negative”. Further, the mutagenic call was “inactive; negative” (Test System: AMES SALMONELLA TYPHIMURIUM, Strain/Indicator: TA1535, Metabolic Activation: HAMSTER, LIVER, S-9, AROCLOR 1254, Method: STANDARD PLATE); “inactive; negative” under setting [2]; “inactive; negative” under setting [6]; “inactive; negative” (Test System: AMES SALMONELLA TYPHIMURIUM, Strain/Indicator: TA1537, Metabolic Activation: HAMSTER, LIVER, S-9, AROCLOR 1254, Method: STANDARD PLATE); “inactive; negative” under setting [7]; “inactive; negative” under setting [8]. The mutagenic call by setting is: (Test System: AMES SALMONELLA TYPHIMURIUM, Strain/Indicator: TA1538, Metabolic Activation: HAMSTER, LIVER, S-9, AROCLOR 1254, Method: STANDARD PLATE) “inactive; negative”; (Test System: AMES SALMONELLA TYPHIMURIUM, Strain/Indicator: TA1538, Metabolic Activation: NONE, Method: STANDARD PLATE) “inactive; negative”; (Test System: AMES SALMONELLA TYPHIMURIUM, Strain/Indicator: TA1538, Metabolic Activation: RAT, LIVER, S-9, AROCLOR 1254, Method: STANDARD PLATE) “inactive; negative”; (Test System: MOUSE LYMPHOMA, Strain/Indicator: L5178Y (TK+/TK-), Metabolic Activation: NONE, Method: SUSPENSION/PLATE) “active; positive. reevaluation of results: equivocal”; (Test System: MOUSE LYMPHOMA, Strain/Indicator: L5178Y (TK+/TK-), Metabolic Activation: RAT, LIVER, S-9, AROCLOR 1254, Method: SUSPENSION/PLATE) “inactive; negative. reevaluation of results: negative”.
Turning to `Cc1cc(=O)c2c(O)c3c(O)cc(O)c4c5c(O)cc(O)c6c(O)c7c(=O)cc(C)c8c1c2c(c34)c(c65)c78`, the mutagenic call was “inactive; negative” under setting [3], “inactive; negative” under setting [4], “inactive; negative” under setting [1] and “inactive; negative” under setting [5].
As to `c1cnc2c3c(ccc2c1)C1OC1CC3` (stereo unspecified), the mutagenic call under setting [1] is “inactive; negative”.
Turning to `Cc1cccc2c1ccc1ccccc12`, the mutagenic call was “inactive; negative” (Test System: AMES SALMONELLA TYPHIMURIUM, Strain/Indicator: TA97, Metabolic Activation: NONE, Method: STANDARD PLATE); “active; positive” (Test System: AMES SALMONELLA TYPHIMURIUM, Strain/Indicator: TA97, Metabolic Activation: RAT, LIVER, S-9, PCB, Method: STANDARD PLATE); “inactive; negative” under setting [3]; “active; positive” (Test System: AMES SALMONELLA TYPHIMURIUM, Strain/Indicator: TA98, Metabolic Activation: RAT, LIVER, S-9, PCB, Method: STANDARD PLATE); “inactive; negative” under setting [1]; “active; positive” (Test System: AMES SALMONELLA TYPHIMURIUM, Strain/Indicator: TA100, Metabolic Activation: RAT, LIVER, S-9, PCB, Method: STANDARD PLATE).
Take `COCC12OOC1(C)c1ccccc1O2` (stereo unspecified): the mutagenic call (Test System: AMES SALMONELLA TYPHIMURIUM, Strain/Indicator: TA100, Metabolic Activation: NONE, Method: PREINCUBATION) is “active; positive”.
For `CC1(C)C(C=C(Cl)Cl)C1C(=O)OCc1cccc(Oc2ccccc2)c1` (stereo unspecified), the mutagenic call is “inactive; negative” (Test System: AMES SALMONELLA TYPHIMURIUM, Strain/Indicator: TA97A, Metabolic Activation: NONE, Method: STANDARD PLATE); “inactive; negative” (Test System: AMES SALMONELLA TYPHIMURIUM, Strain/Indicator: TA97A, Metabolic Activation: RAT, CECAL CELL FREE EXTRACT, Method: STANDARD PLATE); “inactive; negative” (Test System: AMES SALMONELLA TYPHIMURIUM, Strain/Indicator: TA97A, Metabolic Activation: RAT, LIVER, S-9, AROCLOR 1254, Method: STANDARD PLATE); “active; positive” (Test System: AMES SALMONELLA TYPHIMURIUM, Strain/Indicator: TA98, Metabolic Activation: NONE); “inactive; negative” (Test System: AMES SALMONELLA TYPHIMURIUM, Strain/Indicator: TA98, Metabolic Activation: NONE, Method: MICROSUSPENSION); “inactive; negative” under setting [3]. In addition, the mutagenic call is, setting by setting: (Test System: AMES SALMONELLA TYPHIMURIUM, Strain/Indicator: TA98, Metabolic Activation: RAT, CECAL CELL FREE EXTRACT, Method: STANDARD PLATE) “inactive; negative”; under setting [4], “inactive; negative”; (Test System: AMES SALMONELLA TYPHIMURIUM, Strain/Indicator: TA98, Metabolic Activation: RAT, LIVER, S-9, POLYCHLORINATED BIPHENYLS) “inactive; negative”; (Test System: AMES SALMONELLA TYPHIMURIUM, Strain/Indicator: TA98, Metabolic Activation: S-9, Method: MICROSUSPENSION) “inactive; negative”; (Test System: AMES SALMONELLA TYPHIMURIUM, Strain/Indicator: TA100) “inactive; negative”; (Test System: AMES SALMONELLA TYPHIMURIUM, Strain/Indicator: TA100, Metabolic Activation: NONE) “inactive; negative”. Also, the mutagenic call runs as follows: (Test System: AMES SALMONELLA TYPHIMURIUM, Strain/Indicator: TA100, Metabolic Activation: NONE, Method: MICROSUSPENSION) “inactive; negative”; under setting [1], “inactive; negative”; (Test System: AMES SALMONELLA TYPHIMURIUM, Strain/Indicator: TA100, Metabolic Activation: RAT, CECAL CELL FREE EXTRACT, Method: STANDARD PLATE) “inactive; negative”; under setting [5], “inactive; negative”; (Test System: AMES SALMONELLA TYPHIMURIUM, Strain/Indicator: TA100, Metabolic Activation: S-9, Method: MICROSUSPENSION) “inactive; negative”; under setting [2], “inactive; negative”. The mutagenic call under setting [6] was “inactive; negative”; the mutagenic call under setting [7] is “inactive; negative”; the mutagenic call under setting [8] was “inactive; negative”; the mutagenic call (Test System: CHINESE HAMSTER V-79, Strain/Indicator: V-79/6-THIOGUANINE, Metabolic Activation: NONE, Method: STANDARD PLATE) was “inactive; negative”; the mutagenic call (Test System: CHINESE HAMSTER V-79, Strain/Indicator: V-79/6-THIOGUANINE, Metabolic Activation: RAT HEPATOCYTES, Method: STANDARD PLATE) was “inactive; negative”; the mutagenic call (Test System: CHINESE HAMSTER V-79, Strain/Indicator: V-79/OUABAIN, Metabolic Activation: NONE, Method: STANDARD PLATE) was “inactive; negative”. For the same compound, the mutagenic call is “inactive; negative” (Test System: CHINESE HAMSTER V-79, Strain/Indicator: V-79/OUABAIN, Metabolic Activation: RAT HEPATOCYTES, Method: STANDARD PLATE); “inactive; negative” (Test System: E. COLI, Strain/Indicator: WP2, Metabolic Activation: NONE, Method: STANDARD PLATE); “inactive; negative” (Test System: E. COLI, Strain/Indicator: WP2, Metabolic Activation: RAT, LIVER, S-9, AROCLOR 1254, Method: STANDARD PLATE).
